Key:
[1] = tested on: Echinochloa oryzoides (Ard.) Fritsch.; experiment: Preemergence weed control under flooded paddy conditions, ECHORC (Watergrass (Calif.)); format: in vivo; details: flooded paddy, rated three to four weeks after treatment; as to herbicidal effect rating, ECHORC: meaning of each grade not given here
[2] = tested on: Cyperus iria; experiment: Preemergence weed control under flooded paddy conditions, CYPIR (Rice Flatsedge); format: in vivo; details: flooded paddy, rated three to four weeks after treatment; as to herbicidal effect rating, CYPIR: meaning of each grade not given here
[3] = tested on: Cyperus serotinus, Rottb.; experiment: Preemergence weed control under flooded paddy conditions, CYPSE (Flatsedge); format: in vivo; details: rated three to four weeks after treatment; as to herbicidal effect rating, CYPSE: meaning of each grade not given here
[4] = tested on: Monochoria vaginalis, Presl.; experiment: Preemergence weed control under flooded paddy conditions, MOOVA (Monochoria); format: in vivo; details: flooded paddy, rated three to four weeks after treatment; as to herbicidal effect rating, MOOVA: meaning of each grade not given here
[5] = tested on: Sagittaria pygmaea, L.; experiment: Preemergence weed control under flooded paddy conditions, SAGPY (Arrowhead (Pygmaea)); format: in vivo; details: flooded paddy, rated three to four weeks after treatment; as to herbicidal effect rating, SAGPY: meaning of each grade not given here
[6] = tested on: Oryza sativa, (L.) Tebonnet; experiment: Rice tolerance to post-transplant applications under flooded paddy conditions (Example 187), ORYSAT (Rice, Tebonnet); details: rated three to four weeks after treatment
[7] = Rate 0.0320 kg/ha, preemergence weeds
[8] = Rate 0.0620 kg/ha, preemergence weeds
[9] = Rate 0.1250 kg/ha, preemergence weeds
[10] = Rate 0.2500 kg/ha, preemergence weeds
[11] = Rate 0.0313 kg/ha, preemergence
[12] = Rate 0.0625 kg/ha, preemergence
[13] = Rate 0.1250 kg/ha, preemergence
[14] = Rate 0.2500 kg/ha, preemergence
[15] = Rate 0.0320 kg/ha, preemergence
[16] = Rate 0.0620 kg/ha, preemergence

How did the “herbicidal effect rating, ECHORC” value [1, 7] turn out when `Cn1c(C(F)(F)F)cc(=O)n(-c2ccc3snc(C(N)=O)c3c2)c1=O` [Example 322, 1,2-Benzisothiazole-3-carboxamide, 5-[3,6-dihydro-3-methyl-2,6-dioxo-4-(trifluoromethyl)-1(2H)-pyrimidinyl]-] was run?
Its value is 9.0.

And the “herbicidal effect rating, ECHORC” value [1, 8]?
Its value is 9.0.

What about the “herbicidal effect rating, ECHORC” value [1, 9] of the same compound?
The value was 9.0.

What about the “herbicidal effect rating, ECHORC” value [1, 10] of the same compound?
Its value is 9.0.

What about the “herbicidal effect rating, CYPIR” value [2, 7] of the same compound?
The value was 4.0.

What about the “herbicidal effect rating, CYPIR” value [2, 8] of the same compound?
The value was 6.0.

And the “herbicidal effect rating, CYPIR” value [2, 9]?
Its value is 7.0.

And the “herbicidal effect rating, CYPIR” value [2, 10]?
Its value is 9.0.

And the “herbicidal effect rating, CYPSE” value [3, 7]?
The value was 5.0.

What about the “herbicidal effect rating, CYPSE” value [3, 8] of the same compound?
Its value is 5.0.

And the “herbicidal effect rating, CYPSE” value [3, 9]?
The value was 6.0.

What about the “herbicidal effect rating, CYPSE” value [3, 10] of the same compound?
The value was 9.0.

And the “herbicidal effect rating, MOOVA” value [4, 7]?
The value was 5.0.

What about the “herbicidal effect rating, MOOVA” value [4, 8] of the same compound?
The value was 9.0.

And the “herbicidal effect rating, MOOVA” value [4, 9]?
Its value is 9.0.

What about the “herbicidal effect rating, MOOVA” value [4, 10] of the same compound?
Its value is 9.0.

And the “herbicidal effect rating, SAGPY” value [5, 7]?
The value was 3.0.

And the “herbicidal effect rating, SAGPY” value [5, 8]?
The value was 3.0.

And the “herbicidal effect rating, SAGPY” value [5, 9]?
The value was 3.0.

What about the “herbicidal effect rating, SAGPY” value [5, 10] of the same compound?
The value was 9.0.

What about the “herbicidal effect rating ORYSAT” value ([6]; Rate 0.0320 kg/ha) of the same compound?
The value was 5.0.

What about the “herbicidal effect rating ORYSAT” value ([6]; Rate 0.0620 kg/ha) of the same compound?
Its value is 5.0.

What about the “herbicidal effect rating ORYSAT” value ([6]; Rate 0.1250 kg/ha) of the same compound?
Its value is 5.0.

And the “herbicidal effect rating ORYSAT” value ([6]; Rate 0.2500 kg/ha)?
The value was 7.0.

What does the source list for `CCOc1nc(C(F)(F)F)cc(=O)n1-c1ccc2snc(-c3cc(C)ccc3OCC(=O)OC)c2c1` [Example 246, Methyl {{2-{5-[2-ethoxy-6-oxo-4-(trifluoromethyl)-1(6H)-pyrimidinyl]-1,2-benzisothiazol-3-yl}-p-tolyl}oxy}acetate]?
ECHORC herbicidal effect rating [1, 11]: 6.0; ECHORC herbicidal effect rating [1, 12]: 7.0; ECHORC herbicidal effect rating [1, 13]: 9.0; ECHORC herbicidal effect rating [1, 14]: 9.0; CYPIR herbicidal effect rating [2, 11]: 0.0; CYPIR herbicidal effect rating [2, 12]: 2.0; CYPIR herbicidal effect rating [2, 13]: 4.0; CYPIR herbicidal effect rating [2, 14]: 4.0; CYPSE herbicidal effect rating [3, 11]: 0.0; CYPSE herbicidal effect rating [3, 12]: 0.0; CYPSE herbicidal effect rating [3, 13]: 0.0; MOOVA herbicidal effect rating [4, 11]: 9.0; MOOVA herbicidal effect rating [4, 12]: 9.0; MOOVA herbicidal effect rating [4, 13]: 9.0; MOOVA herbicidal effect rating [4, 14]: 9.0; SAGPY herbicidal effect rating [5, 11]: 0.0; SAGPY herbicidal effect rating [5, 12]: 0.0; SAGPY herbicidal effect rating [5, 13]: 2.0; SAGPY herbicidal effect rating [5, 14]: 2.0; ORYSAT herbicidal effect rating ([6]; Rate 0.0313 kg/ha): 0.0; ORYSAT herbicidal effect rating ([6]; Rate 0.0625 kg/ha): 1.0; ORYSAT herbicidal effect rating ([6]; Rate 0.1250 kg/ha): 2.0; ORYSAT herbicidal effect rating ([6]; Rate 0.2500 kg/ha): 2.0

How did the “herbicidal effect rating, ECHORC” value [1, 7] turn out when `C#CCOC(=O)COc1cccc(-c2nsc3ccc(-n4c(=O)cc(C(F)(F)F)n(C)c4=O)cc23)c1` [Example 326, Acetic acid, {m-{5-[3,6-dihydro-3-methyl-2,6-dioxo-4-(trifluoromethyl)-1(2H)-pyrimidinyl]-1,2-benzisothiazol-3-yl}phenoxy}-, 2-propynyl ester] was run?
The value was 5.5.

What about the “herbicidal effect rating, ECHORC” value [1, 8] of the same compound?
Its value is 8.5.

And the “herbicidal effect rating, ECHORC” value [1, 9]?
Its value is 9.0.

And the “herbicidal effect rating, ECHORC” value [1, 10]?
The value was 9.0.

What about the “herbicidal effect rating, CYPIR” value [2, 7] of the same compound?
The value was 6.0.

And the “herbicidal effect rating, CYPIR” value [2, 8]?
The value was 7.0.

And the “herbicidal effect rating, CYPIR” value [2, 9]?
Its value is 7.0.

What about the “herbicidal effect rating, CYPIR” value [2, 10] of the same compound?
The value was 9.0.

And the “herbicidal effect rating, CYPSE” value [3, 7]?
The value was 4.0.

And the “herbicidal effect rating, CYPSE” value [3, 8]?
The value was 4.5.

And the “herbicidal effect rating, CYPSE” value [3, 9]?
Its value is 4.5.

And the “herbicidal effect rating, CYPSE” value [3, 10]?
The value was 7.5.

What about the “herbicidal effect rating, MOOVA” value [4, 7] of the same compound?
Its value is 9.0.

What about the “herbicidal effect rating, MOOVA” value [4, 8] of the same compound?
The value was 9.0.

And the “herbicidal effect rating, MOOVA” value [4, 9]?
The value was 9.0.

And the “herbicidal effect rating, MOOVA” value [4, 10]?
Its value is 9.0.

What about the “herbicidal effect rating, SAGPY” value [5, 7] of the same compound?
The value was 0.0.

What about the “herbicidal effect rating, SAGPY” value [5, 8] of the same compound?
Its value is 1.0.

And the “herbicidal effect rating, SAGPY” value [5, 9]?
Its value is 5.5.

And the “herbicidal effect rating, SAGPY” value [5, 10]?
The value was 9.0.

And the “herbicidal effect rating ORYSAT” value ([6]; Rate 0.0320 kg/ha)?
Its value is 5.5.

What about the “herbicidal effect rating ORYSAT” value ([6]; Rate 0.0620 kg/ha) of the same compound?
The value was 5.5.

And the “herbicidal effect rating ORYSAT” value ([6]; Rate 0.1250 kg/ha)?
The value was 5.5.

What about the “herbicidal effect rating ORYSAT” value ([6]; Rate 0.2500 kg/ha) of the same compound?
The value was 5.5.

Which results are given for `CC(C#N)c1nsc2ccc(-n3c(=O)cc(C(F)(F)F)n(C)c3=O)cc12` (stereo not drawn) [Example 583, 1,2-Benzisothiazole-3-acetonitrile, 5-[3,6-dihydro-3-methyl-2,6-dioxo-4-(trifluoromethyl)-1(2H)-pyrimidinyl]-alpha-methyl-]?
herbicidal effect rating, ECHORC [1, 15]: 3.0; herbicidal effect rating, ECHORC [1, 16]: 7.5; herbicidal effect rating, ECHORC [1, 13]: 9.0; herbicidal effect rating, ECHORC [1, 14]: 9.0; herbicidal effect rating, CYPIR [2, 15]: 9.0; herbicidal effect rating, CYPIR [2, 16]: 9.0; herbicidal effect rating, CYPIR [2, 13]: 9.0; herbicidal effect rating, CYPIR [2, 14]: 9.0; herbicidal effect rating, CYPSE [3, 15]: 8.5; herbicidal effect rating, CYPSE [3, 16]: 9.0; herbicidal effect rating, CYPSE [3, 13]: 9.0; herbicidal effect rating, CYPSE [3, 14]: 9.0; herbicidal effect rating, MOOVA [4, 15]: 6.0; herbicidal effect rating, MOOVA [4, 16]: 9.0; herbicidal effect rating, MOOVA [4, 13]: 9.0; herbicidal effect rating, MOOVA [4, 14]: 9.0; herbicidal effect rating, SAGPY [5, 15]: 9.0; herbicidal effect rating, SAGPY [5, 16]: 9.0; herbicidal effect rating, SAGPY [5, 13]: 9.0; herbicidal effect rating, SAGPY [5, 14]: 9.0; herbicidal effect rating ORYSAT ([6]; Rate 0.0320 kg/ha): 5.0; herbicidal effect rating ORYSAT ([6]; Rate 0.0620 kg/ha): 7.0; herbicidal effect rating ORYSAT ([6]; Rate 0.1250 kg/ha): 9.0; herbicidal effect rating ORYSAT ([6]; Rate 0.2500 kg/ha): 9.0

With `COC(=O)c1nsc2ccc(-n3c(=O)cc(C(F)(F)F)n(C)c3=O)cc12` [Example 318, 1,2-Benzisothiazole-3-carboxylic acid, 5-[3,6-dihydro-3-methyl-2,6-dioxo-4-(trifluoromethyl)-1(2H)-pyrimidinyl]-, methyl ester] as the compound, how does the “herbicidal effect rating, ECHORC” value [1, 7] read?
The value was 0.0.

What about the “herbicidal effect rating, ECHORC” value [1, 8] of the same compound?
Its value is 3.0.

And the “herbicidal effect rating, ECHORC” value [1, 9]?
Its value is 5.0.

And the “herbicidal effect rating, ECHORC” value [1, 10]?
The value was 5.0.

What about the “herbicidal effect rating, CYPIR” value [2, 7] of the same compound?
Its value is 0.0.

What about the “herbicidal effect rating, CYPIR” value [2, 8] of the same compound?
The value was 2.0.

And the “herbicidal effect rating, CYPIR” value [2, 9]?
Its value is 5.0.

What about the “herbicidal effect rating, CYPIR” value [2, 10] of the same compound?
The value was 6.0.

What about the “herbicidal effect rating, CYPSE” value [3, 7] of the same compound?
Its value is 0.0.

And the “herbicidal effect rating, CYPSE” value [3, 8]?
Its value is 0.0.

What about the “herbicidal effect rating, CYPSE” value [3, 9] of the same compound?
The value was 0.0.

And the “herbicidal effect rating, CYPSE” value [3, 10]?
Its value is 9.0.

What about the “herbicidal effect rating, MOOVA” value [4, 7] of the same compound?
The value was 4.0.

What about the “herbicidal effect rating, MOOVA” value [4, 8] of the same compound?
The value was 6.0.

What about the “herbicidal effect rating, MOOVA” value [4, 9] of the same compound?
Its value is 9.0.

And the “herbicidal effect rating, MOOVA” value [4, 10]?
Its value is 9.0.

What about the “herbicidal effect rating, SAGPY” value [5, 7] of the same compound?
The value was 0.0.

And the “herbicidal effect rating, SAGPY” value [5, 8]?
Its value is 0.0.

What about the “herbicidal effect rating, SAGPY” value [5, 9] of the same compound?
The value was 0.0.

And the “herbicidal effect rating, SAGPY” value [5, 10]?
Its value is 4.0.

What about the “herbicidal effect rating ORYSAT” value ([6]; Rate 0.0320 kg/ha) of the same compound?
Its value is 5.0.

What about the “herbicidal effect rating ORYSAT” value ([6]; Rate 0.0620 kg/ha) of the same compound?
Its value is 5.0.

What about the “herbicidal effect rating ORYSAT” value ([6]; Rate 0.1250 kg/ha) of the same compound?
The value was 5.0.

And the “herbicidal effect rating ORYSAT” value ([6]; Rate 0.2500 kg/ha)?
Its value is 9.0.
